Where two headings read alike, the source gives them in different places.
Assays:
[1] = system: genotype 1a (H77) stable HCV replicon in Huh-7-derived cells; experiment: Stable subgenomic HCV replicon EC50, genotype 1a (Renilla luciferase); assay type: cell-based, hepatitis C virus; conditions: stable replicon genotype 1a, 72 h, read-out: EC50 1A RLUC
Summary of the method: (§1)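 Compounds, three-fold diluted, were applied to Huh-7-derived cells harbouring luciferase replicons (genotype 1a H77, 1b Con1, 2a JFH-1, 4a ED43, with strain-specific adaptive mutations). Seventy-two hours later, intracellular replication was gauged by Renilla luciferase activity and EC50 derived by regression.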

[2] = system: genotype 1b NS3/4a protease inhibitor resistant variant D168A transient HCV replicon in Huh-7-derived cells; experiment: Transient-transfected HCV replicon EC50, genotype 1b D168A; assay type: cell-based, hepatitis C virus; conditions: 72 h
[3] = system: genotype 2a (JFH-1) stable HCV replicon in Huh-7-derived cells; experiment: Stable subgenomic HCV replicon EC50, genotype 2a (Renilla luciferase); assay type: cell-based, hepatitis C virus; conditions: stable replicon genotype 2a, 72 h, read-out: EC50 2A RLUC
Summary of the method: as §1

[4] = system: genotype 1a NS3/4a protease inhibitor resistant variant R155K transient HCV replicon in Huh-7-derived cells; experiment: Transient-transfected HCV replicon EC50, genotype 1a R155K; assay type: cell-based, hepatitis C virus; conditions: 72 h
[5] = system: genotype 3a (S52) wild type transient HCV replicon in Huh-7-derived cells; experiment: Transient-transfected HCV replicon EC50, genotype 3a wild type; assay type: cell-based, hepatitis C virus; conditions: transient-transfected replicon genotype 3a wild type, 72 h, read-out: EC50 3A WT
[6] = system: genotype 4a (ED43) stable HCV replicon in Huh-7-derived cells; experiment: Stable subgenomic HCV replicon EC50, genotype 4a (Renilla luciferase); assay type: cell-based, hepatitis C virus; conditions: 72 h, read-out: EC50 4A RLUC
Summary of the method: as §1

[7] = system: genotype 1a (H77) wild type transient HCV replicon in Huh-7-derived cells; experiment: Transient-transfected HCV replicon EC50, genotype 1a wild type; assay type: cell-based, hepatitis C virus; conditions: 72 h, transient-transfected replicon genotype 1a wild type, read-out: EC50 1A WT
[8] = system: genotype 3a (S52) stable HCV replicon in Huh-7-derived cells; experiment: Stable subgenomic HCV replicon EC50, genotype 3a (Renilla luciferase); assay type: cell-based, hepatitis C virus; conditions: 72 h, read-out: EC50 3A RLUC
[9] = system: genotype 1b (Con1) stable HCV replicon in Huh-7-derived cells; experiment: Stable subgenomic HCV replicon EC50, genotype 1b (Renilla luciferase); assay type: cell-based, hepatitis C virus; conditions: stable replicon genotype 1b, 72 h, read-out: EC50 1B RLUC
Summary of the method: as §1

[10] = system: genotype 1b (Con1) wild type transient HCV replicon in Huh-7-derived cells; experiment: Transient-transfected HCV replicon EC50, genotype 1b wild type; assay type: cell-based, hepatitis C virus; conditions: 72 h, transient-transfected replicon genotype 1b wild type, read-out: EC50 1B WT
[11] = biological target: HCV NS3 protease domain genotype 3a (Hepatitis C virus genotype 3a, UniProt Q81258); experiment: Ki determination, NS3 protease genotype 3a (fluorogenic depsipeptide substrate); assay type: biochemical; conditions: 200 pM enzyme, NS4A peptide
Summary of the method: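 The NS3 protease domain (aa 1-181) with 20 μM NS4A peptide was used at 50 pM with 4 μM substrate (1b) or at 200 pM with 2 μM substrate (3a). Inhibitors (100 nM-5 pM) were pre-incubated 1 h at room temperature in HEPES/glycerol/DTT buffer with 10% DMSO. Steady-state rates (90-120 min) gave Ki via the Morrison equation, corrected for active enzyme and [S]/Km.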

[12] = Hepatitis C virus, read-out: EC50 1B D168A, transient-transfected replicon genotype 1b D168A resistant variant, 72 h
[13] = Hepatitis C virus, read-out: EC50 1A R155K, transient-transfected replicon genotype 1a R155K resistant variant, 72 h

Chain of HCV NS3 protease domain genotype 3a (Q81258 whole entry, looked up, the tested form may be a part): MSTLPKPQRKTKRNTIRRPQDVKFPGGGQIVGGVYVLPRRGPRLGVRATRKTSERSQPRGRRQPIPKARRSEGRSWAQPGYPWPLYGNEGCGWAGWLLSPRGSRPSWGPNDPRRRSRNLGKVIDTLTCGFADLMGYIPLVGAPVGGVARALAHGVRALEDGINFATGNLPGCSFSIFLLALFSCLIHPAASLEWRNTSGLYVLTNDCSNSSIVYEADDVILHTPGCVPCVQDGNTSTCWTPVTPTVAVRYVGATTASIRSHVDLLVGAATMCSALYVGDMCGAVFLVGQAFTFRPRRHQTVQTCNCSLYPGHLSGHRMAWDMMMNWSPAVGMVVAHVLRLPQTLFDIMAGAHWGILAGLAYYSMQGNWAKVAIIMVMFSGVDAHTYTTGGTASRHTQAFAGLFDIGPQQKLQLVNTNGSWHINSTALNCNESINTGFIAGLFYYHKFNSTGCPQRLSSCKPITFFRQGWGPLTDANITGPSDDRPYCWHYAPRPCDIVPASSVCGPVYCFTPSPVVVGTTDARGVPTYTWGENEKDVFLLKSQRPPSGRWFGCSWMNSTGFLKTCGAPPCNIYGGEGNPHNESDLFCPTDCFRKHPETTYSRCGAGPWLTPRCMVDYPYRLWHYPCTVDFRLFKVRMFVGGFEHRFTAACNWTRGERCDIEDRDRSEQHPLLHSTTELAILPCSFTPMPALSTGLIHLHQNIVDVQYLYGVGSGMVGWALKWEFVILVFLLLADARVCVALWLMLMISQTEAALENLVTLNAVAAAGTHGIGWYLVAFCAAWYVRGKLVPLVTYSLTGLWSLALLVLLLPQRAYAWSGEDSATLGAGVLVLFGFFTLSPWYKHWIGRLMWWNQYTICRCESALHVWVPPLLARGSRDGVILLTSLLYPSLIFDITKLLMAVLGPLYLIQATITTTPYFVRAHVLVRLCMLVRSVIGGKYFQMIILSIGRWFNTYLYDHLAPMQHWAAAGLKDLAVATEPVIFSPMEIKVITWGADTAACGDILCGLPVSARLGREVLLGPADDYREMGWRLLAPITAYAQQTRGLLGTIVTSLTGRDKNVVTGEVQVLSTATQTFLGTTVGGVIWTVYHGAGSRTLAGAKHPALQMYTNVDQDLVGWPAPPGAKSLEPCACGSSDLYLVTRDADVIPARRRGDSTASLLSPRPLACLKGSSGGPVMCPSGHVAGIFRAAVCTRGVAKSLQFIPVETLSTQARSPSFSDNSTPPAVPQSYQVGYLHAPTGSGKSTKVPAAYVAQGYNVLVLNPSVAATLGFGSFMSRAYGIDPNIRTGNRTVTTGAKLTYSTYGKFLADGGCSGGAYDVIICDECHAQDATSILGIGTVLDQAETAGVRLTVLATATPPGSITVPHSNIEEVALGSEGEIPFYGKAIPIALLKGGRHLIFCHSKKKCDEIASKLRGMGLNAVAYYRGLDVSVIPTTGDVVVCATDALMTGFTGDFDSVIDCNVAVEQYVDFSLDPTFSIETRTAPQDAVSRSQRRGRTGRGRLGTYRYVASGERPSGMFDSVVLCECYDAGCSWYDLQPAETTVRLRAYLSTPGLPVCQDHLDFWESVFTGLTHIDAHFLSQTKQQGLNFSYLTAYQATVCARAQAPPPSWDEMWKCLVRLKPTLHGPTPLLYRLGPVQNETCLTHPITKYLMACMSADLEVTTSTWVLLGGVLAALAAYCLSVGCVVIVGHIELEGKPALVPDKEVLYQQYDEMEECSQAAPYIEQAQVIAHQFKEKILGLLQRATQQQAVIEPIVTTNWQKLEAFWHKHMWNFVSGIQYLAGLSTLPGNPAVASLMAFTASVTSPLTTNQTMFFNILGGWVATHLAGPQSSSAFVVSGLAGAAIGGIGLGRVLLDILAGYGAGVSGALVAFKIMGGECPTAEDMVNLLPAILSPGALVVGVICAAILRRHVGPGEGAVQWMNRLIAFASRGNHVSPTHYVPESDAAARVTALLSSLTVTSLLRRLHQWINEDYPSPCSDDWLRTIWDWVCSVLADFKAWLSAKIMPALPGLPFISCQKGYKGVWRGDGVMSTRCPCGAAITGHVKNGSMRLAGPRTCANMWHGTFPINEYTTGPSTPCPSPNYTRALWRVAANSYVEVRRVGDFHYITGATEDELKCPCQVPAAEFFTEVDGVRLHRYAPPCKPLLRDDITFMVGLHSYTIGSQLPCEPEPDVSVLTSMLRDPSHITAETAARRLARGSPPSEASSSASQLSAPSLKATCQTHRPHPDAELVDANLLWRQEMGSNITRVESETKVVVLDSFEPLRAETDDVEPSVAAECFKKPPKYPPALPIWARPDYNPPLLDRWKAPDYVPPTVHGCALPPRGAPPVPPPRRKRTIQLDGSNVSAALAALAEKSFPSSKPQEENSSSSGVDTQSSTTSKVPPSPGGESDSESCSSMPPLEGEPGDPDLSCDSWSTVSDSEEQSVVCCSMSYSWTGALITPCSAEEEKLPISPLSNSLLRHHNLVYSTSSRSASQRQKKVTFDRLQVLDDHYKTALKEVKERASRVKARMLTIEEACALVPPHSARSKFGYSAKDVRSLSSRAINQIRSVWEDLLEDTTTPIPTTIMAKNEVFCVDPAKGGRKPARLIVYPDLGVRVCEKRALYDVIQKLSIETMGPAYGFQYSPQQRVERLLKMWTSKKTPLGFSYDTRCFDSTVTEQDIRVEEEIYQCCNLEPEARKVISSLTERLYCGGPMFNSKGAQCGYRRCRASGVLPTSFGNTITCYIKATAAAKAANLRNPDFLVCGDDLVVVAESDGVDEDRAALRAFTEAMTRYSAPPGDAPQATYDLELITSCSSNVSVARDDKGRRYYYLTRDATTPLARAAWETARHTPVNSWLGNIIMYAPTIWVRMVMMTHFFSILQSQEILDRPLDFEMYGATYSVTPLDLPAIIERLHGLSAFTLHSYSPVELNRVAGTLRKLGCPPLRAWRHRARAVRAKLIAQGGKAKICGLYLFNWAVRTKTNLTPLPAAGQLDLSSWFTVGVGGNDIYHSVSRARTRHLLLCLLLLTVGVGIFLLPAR

Row | Molecule | EC50 ([1]; Hepatitis C virus) [nM] | EC50 [2, 12] [nM] | EC50 ([3]; Hepatitis C virus) [nM] | EC50 [4, 13] [nM] | EC50 ([5]; Hepatitis C virus) [nM] | EC50 ([6]; Hepatitis C virus) [nM] | EC50 ([7]; Hepatitis C virus) [nM] | EC50 ([8]; Hepatitis C virus) [nM] | EC50 ([9]; Hepatitis C virus) [nM] | EC50 ([10]; Hepatitis C virus) [nM] | Ki [11] [nM] | other results
1 | CC[C@@H]1[C@@H]2CN(C(=O)[C@H](C(C)(C)C)NC(=O)O[C@@H]3C[C@H]3CCCCCc3nc4ccc(OC)cc4nc3O2)[C@@H]1C(=O)N[C@]1(C(=O)NS(=O)(=O)C2(C)CC2)C[C@H]1C(F)F [Example 1, (1aR,5S,8S,9S,10R,22aR)-5-tert-butyl-N-[(1R,2R)-2-(difluoromethyl)-1-{[(1-methylcyclopropyl)sulfonyl]carbamoyl}cyclopropyl]-9-ethyl-14-methoxy-3,6-dioxo-1,1a,3,4,5,6,9,10,18,19,20,21,22,22a-tetradecahydro-8H-7,10-methanocyclopropa[18,19][1,10,3,6]dioxadiazacyclononadecino[11,12-b]quinoxaline-8-carboxamide] | 4.4 | 17 | 4.1 | 4.9 | 17 | 3.1 | 3.2 | 46 | 3.9 | 2.2 | 0.07 | 
2 | COc1ccc2nc3c(nc2c1)O[C@H]1CN(C(=O)[C@H](C(C)(C)C)NC(=O)O[C@@H]2CCCC[C@H]2CCCCC3(F)F)[C@H](C(=O)N[C@]2(C(=O)NS(=O)(=O)C3CC3)C[C@H]2C(F)F)[C@@H]1C [Example 68, (4aR,8S,11 S,12S,13R,25aS)-8-tert-butyl-N-[(1R,2R)-1-[(cyclopropylsulfonyl)carbamoyl]-2-(difluoromethyl)cyclopropyl]-21,21-difluoro-17-methoxy-12-methyl-6,9-dioxo-2,3,4,4a,6,7,8,9,12,13,21,22,23,24,25,25a-hexadecahydro-1H,11H-10,13-methanoquinoxalino[2,3-k][1,10,3,6]benzodioxadiazacyclononadecine-11-carboxamide] | 13 | 78 | 18 | 37 | 139 | 9.4 | 14 | 364 | 7.7 | 4.4 | 0.63 | 
3 | COc1ccc2nc3c(nc2c1)O[C@H]1CN(C(=O)[C@H](C(C)(C)C)NC(=O)O[C@]2(C)C[C@H]2CCCCC3(F)F)[C@H](C(=O)N[C@]2(C(=O)NS(=O)(=O)C3(C)CC3)C[C@H]2C(F)F)[C@@H]1C [Example 76, (1aR,5S,8S,9S,10R,22aR)-5-tert-butyl-N-[(1R,2R)-2-(difluoromethyl)-1-{[(1-methylcyclopropyl)sulfonyl]carbamoyl}cyclopropyl]-18,18-difluoro-14-methoxy-1a,9-dimethyl-3,6-dioxo-1,1a,3,4,5,6,9,10,18,19,20,21,22,22a-tetradecahydro-8H-7,10-methanocyclopropa[18,19][1,10,3,6]dioxadiazacyclononadecino[11,12-b]quinoxaline-8-carboxamide] | 2.4 | 2.8 | 2.4 | 2.1 | 3.4 | 1.9 | 2 | 9 | 2.2 | 1 | 0.06 | 
4 | CC[C@@H]1[C@@H]2CN(C(=O)[C@H](C(C)(C)C)NC(=O)O[C@]3(C)CCC[C@H]3CCCCCc3nc4ccc(OC)cc4nc3O2)[C@@H]1C(=O)N[C@]1(C(=O)NS(=O)(=O)C2(C)CC2)C[C@H]1C(F)F [Example 39] | 34 | 105 | 41 | 63 | 89 | 26 | 23 | 321 | 39 | 16 | 0.2 | 
5 | COc1ccc2nc3c(nc2c1)O[C@H]1CN(C(=O)[C@H](C(C)(C)C)NC(=O)O[C@@H]2CC4CC(C4)[C@H]2CCCCC3)[C@H](C(=O)N[C@]2(C(=O)NS(=O)(=O)C3CC3)C[C@H]2C(F)F)[C@@H]1C [Example 71, (4aR,8S,11S,12S,13R,25aR)-8-tert-butyl-N-[(1R,2R)-1-[(cyclopropylsulfonyl)carbamoyl]-2-(difluoromethyl)cyclopropyl]-17-methoxy-12-methyl-6,9-dioxo-2,3,4,4a,6,7,8,9,12,13,21,22,23,24,25,25a-hexadecahydro-1H,11H-1,3,10,13-dimethanoquinoxalino[2,3-k][1,10,3,6]benzodioxadiazacyclononadecine-11-carboxamide] | 6.5 | 66 | 23 | 30 | 49 | 5.3 | 9.1 | 160 | 5.3 | 3.8 | 0.14 | 
6 | CC[C@@H]1[C@@H]2CN(C(=O)[C@H](C(C)(C)C)NC(=O)O[C@@H]3C[C@H]3CCCCC(F)(F)c3nc4ccc(OC)cc4nc3O2)[C@@H]1C(=O)N[C@]1(C(=O)NS(=O)(=O)C2(C)CC2)C[C@H]1C(F)F [Example 17, (1aR,5S,8S,9S,10R,22aR)-5-tert-butyl-N-[(1R,2R)-2-(difluoromethyl)-1-{[(1-methylcyclopropyl)sulfonyl]carbamoyl}cyclopropyl]-9-ethyl-18,18-difluoro-14-methoxy-3,6-dioxo-1,1a,3,4,5,6,9,10,18,19,20,21,22,22a-tetradecahydro-8H-7,10-methanocyclopropa[18,19][1,10,3,6]dioxadiazacyclononadecino[11,12-b]quinoxaline-8-carboxamide] | 3.9 | 4.3 | 3.7 | 2.8 | 6.1 | 2.9 | 2.9 | 15 | 3.3 | 1.7 | 0.06 | 
7 | (1aR,5S,8S,9S,10R,22aR)-5-tert-butyl-14-chloro-N-[(1R,2R)-2-(difluoromethyl)-1-{[(1-methylcyclopropyl)sulfonyl]carbamoyl}cyclopropyl]-18,18-difluoro-9-methyl-3,6-dioxo-1,1a,3,4,5,6,9,10,18,19,20,21,22,22a-tetradecahydro-8H-7,10-methanocyclopropa[18,19][3,6]dioxadiazacyclononadecino[11,12-b]quinoxaline-8-carboxamide [Example 88] |  |  |  |  |  |  |  |  |  |  | 0.29 | EC50 [1]: 9.3 nM; EC50 ([2]; transient-transfected replicon genotype 1b D168A resistant variant, read-out: EC50 1B D168A): 24 nM; EC50 [3]: 2.7 nM; EC50 ([4]; transient-transfected replicon genotype 1a R155K resistant variant, read-out: EC50 1A R155K): 14 nM; EC50 [5]: 35 nM; EC50 ([6]; stable replicon genotype 4a, Renilla luciferase): 4.1 nM; EC50 [7]: 5 nM; EC50 ([8]; stable replicon genotype 3a, Renilla luciferase): 105 nM; EC50 [9]: 4.6 nM; EC50 [10]: 5.5 nM

From patent US10335409B2 (priority 2012, dated 2019)
